Molecules are shown by their SMILES.

The species named for this assay is Oryctolagus cuniculus. The experiment in a line: Evaluation of vasodilatory activity in Isolated rabbit aorta strips. It is filed as functional.

As a reminder, the IC50 is the concentration that inhibits the measured activity by half. A higher IC50 goes with a need for much substance. As to `CC/C(=C\C(=O)C(N)=O)C(C)[N+](=O)[O-]` (configuration not stated), the IC50 came to 7 µM.
`CC/C(=C\C(=N/O)C(N)=O)C(C)[N+](=O)[O-]` (configuration not stated) showed an IC50 of 0.15 µM. This IC50 is about 47-fold lower than that of the compound before.

The values above are taken from ChEMBL document CHEMBL1151486, “Decomposition of FK 409, a new vasodilator: Identification of nitric oxide as a metabolite” (Bioorg Med Chem Lett, 1995).
